pIC50: −log10 of the molar value. Entries after “also recorded” stand apart in the source; their conditions may differ.
How the values were obtained:
Format in all cases: cell-based
PEO4 cells = assay: cell proliferation assay, PEO4 cells
Source text: (§1) FIG. 63 is a line graph showing the proliferation of PEO1 and PEO4 cells treated with increasing concentrations of cisplatin for 5 days. Data are represented as mean±SD from three independent experiments performed in triplicate. Indicated IC50 values represent the mean of […] independent experiments performed in triplicate.
FIG. 64 is a bar graph showing the synergistic effects of LY2784544 and cisplatin in PEO4 cells. CI values are presented above the bars. CI<1 indicates synergism, CI=1 indicates additive effect, and CI>1 indicates antagonism.
For ovarian cancer, recurrence more than 12 months after initial chemotherapy was considered as platinum sensitive. PEO4 was derived from the patient 10 months later when they had progressive disease and had become cisplatin resistant.

SKOV3 CR cells [1] = assay: cell viability / proliferation (SRB) assay, cisplatin resistant SKOV3 CR cells
Method: as §1, with “FIG. 1” for “FIG. 63”, “of SKOV3 parental” for “of PEO1”, “and SKOV3 CR” for “and PEO4”, “for five” for “for 5”
(§2) FIG. 13 is a line graph showing the proliferation of SKOV3 parental and SKOV3 CR cells treated with increasing concentrations of cisplatin and 0.4 μM LY2784544 for five days. Data are represented as mean±SD from three independent experiments performed in triplicate.
(§3) Cisplatin resistant ovarian cancer cell lines were generated using procedures as described previously. Jazaeri et al., Mol Cancer Ther 12: 1958-1967 (2013). Ovarian cancer cells SKOV3 were cultured in the medium with cisplatin (Sigma-Aldrich) for three weeks, followed by release to cisplatin-free medium for another three weeks. In the next cycle, the cisplatin treatment was repeated in the medium with an increased concentration of cisplatin. After six-cycle treatment, cells were identified that were able to grow in the medium with a high concentration of cisplatin. These cisplatin resistant cells were named as SKOV3 CR (FIG. 1).
(§4) The results obtained from combinational HTS were confirmed by testing whether LY2784544 overcomes cisplatin resistance in ovarian cancer cells using multiple assays. […] The Combination index (CI), which quantitatively describes the interaction between drugs including synergism (CI<1), additive effect (CI=1), and antagonism (CI>1), was calculated.

[2] = tested on: phosphorylation of JAK2 (Y1007/1008) and STAT5 (Y694); assay: western blot of JAK2/STAT5 signaling
Method: FIG. 22 is an illustration showing that LY2784544 down-regulates JAK2/STAT5 signaling in SKOV3 CR cells. Cells were treated with the indicated concentrations of LY2784544 for 48 hr.
FIG. 23 is an illustration showing the immunoblotting for the indicated targets in SKOV3 CR cells treated with vehicle (DMSO), 3 μM LY2784544, 5 μM cisplatin, or the combination for 48 hr.
To investigate the molecular mechanism by which the JAK2-mediated pathway regulates cisplatin resistance of ovarian cancer, the activation of the JAK2-mediated pathway in paired sensitive cell line (SKOV3, IGROV1, PEO1) and resistant cell lines (SKOV3 CR, IGROV1 CR, PEO4) was examined by western blot. Compared to cisplatin sensitive cells SKOV3 or IGROV1, the JAK2 protein levels are not changed in cisplatin resistant cells SKOV3 CR, IGROV1 CR, or PEO4.
The effects of LY2784544 on the JAK2/STAT5 signaling pathway in both SKOV3 and SKOV3 CR cells were examined.

IGROV1 CR cells = assay: cell proliferation assay, cisplatin resistant IGROV1 CR cells
Source text: as §1, with “60” for “63”, “IGROV1 parental” for “PEO1”, “IGROV1 CR” for “PEO4”, “days (left).” for “days.”
FIG. 61 is a bar graph showing the synergistic effects of LY2784544 and cisplatin in IGROV1 CR cells (right). CI values are presented above the bars. CI<1 indicates synergism, […] indicates additive effect, and CI>1 indicates antagonism.
(§5) Using a similar approach as described in FIG. 1, another cisplatin resistant ovarian cancer cell line IGROV1 CR was raised from its cisplatin sensitive parental cell IGROV1 cells. […] The cell proliferation of IGROV1 CR cells treated with cisplatin, LY2784544 or both LY2784544 and cisplatin was examined.

SKOV3 cells = assay: cell viability / proliferation (SRB) assay, SKOV3 parental cells
Method: as §1, with “FIG. 1” for “FIG. 63”, “of SKOV3 parental” for “of PEO1”, “and SKOV3 CR” for “and PEO4”, “for five” for “for 5”
as §2, §3, §4

SKOV3 CR cells [3] = assay: apoptosis (Annexin V and Propidium Iodide staining, cleaved PARP)
Method: FIG. 2 is an illustration showing representative flow plots (A) and a bar graph (B) of SKOV3 and SKOV3 CR cells treated with cisplatin for 48 h and analyzed for Annexin V and Propidium Iodide staining by flow cytometry (A) and quantified apoptosis percentage (B). Data are represented as mean±SD from three independent experiments performed in triplicate. **p<0.01. FIG. 23 is an illustration showing the immunoblotting for the indicated targets in SKOV3 CR cells treated with vehicle (DMSO), 3 μM LY2784544, 5 μM cisplatin, or the combination for 48 hr. FIG. 24 is an illustration showing representative flow plots of SKOV3 CR cells treated with vehicle, 3 μM LY2784544, 5 μM cisplatin, or the combination (combo) for 48 hr and analyzed for Annexin V and Propidium Iodide staining by flow cytometry. Since cisplatin exerts its anticancer effect mainly through its ability to cause DNA damage, resulting in apoptosis, the apoptotic cells in both SKOV3 and SKOV CR cells were measured using Annexin V and Propidium Iodide staining. […] To test whether SKOV3 CR cells are resistant to cisplatin-induced apoptosis in vivo, both SKOV3 and SKOV3 CR cells were injected into nude mice to form xenograft tumors. Once the tumor size reached 100-150 mm^3, cisplatin was given to mice by intraperitoneal injections twice a week for 2 weeks. Three days after treatment, the apoptosis in tumors was examined by TUNEL staining. […] Currently, carboplatin is a more commonly used platinum drug employed clinically to treat ovarian patients. Ozols et al., J Clin Oncol 21: 3194-3200 (2003). Thus, it was tested whether SKOV3 CR cells are also resistant to carboplatin (Sigma-Aldrich). The effects of LY2784544 on the JAK2/STAT5 signaling pathway in both SKOV3 and SKOV3 CR cells were examined.

IGROV1 cells = assay: cell proliferation assay, IGROV1 parental cells; conditions: 5 days
Source text: as §1, with “60” for “63”, “IGROV1 parental” for “PEO1”, “IGROV1 CR” for “PEO4”, “days (left).” for “days.”
as §5

[4] = SKOV3 CR cells, 3 μM LY2784544 plus 5 μM cisplatin, 48 hr

Row | Structure (SMILES) | medium CI (combination index) (PEO4 cells; combination with cisplatin, PEO4 cells) | cisplatin IC50 shift ability (comparison of the three hits) (SKOV3 CR cells [1]; SKOV3 CR cells) | sensitization of SKOV3 CR cells to cisplatin (proliferation) (SKOV3 CR cells [1]; combination with cisplatin at different doses, FIG. 13: 0.4 μM LY2784544, five days) | medium CI (combination index) (SKOV3 CR cells [1]; combination with cisplatin, SKOV3 CR cells, CI<1 synergism) | phosphorylation of JAK2 and STAT5 ([2]; both SKOV3 and SKOV3 CR cells, 48 hr) | medium CI (combination index) (IGROV1 CR cells; combination with cisplatin, IGROV1 CR cells) | medium CI (combination index) (SKOV3 cells; combination with cisplatin, SKOV3 cells, CI<1 synergism) | effect on cell proliferation of SKOV3 (SKOV3 cells; medium with cisplatin or without cisplatin) | apoptosis (cleaved PARP), single agent (SKOV3 CR cells [3]; SKOV3 CR cells, 3 μM LY2784544, 48 hr) | apoptosis (cleaved PARP), combination with cisplatin (SKOV3 CR cells [3]; [4]) | apoptotic cells (Annexin V and Propidium Iodide), combination with cisplatin (SKOV3 CR cells [3]; [4]) | pIC50 (IGROV1 cells) | fold increase of IC50, PEO4 vs PEO1 (PEO4 cells; 5 days) [fold] | pIC50 (PEO4 cells; PEO4 cells, 5 days) | pIC50 (SKOV3 CR cells [1]; SKOV3 CR cells, 5 days) | JAK2/STAT5 signaling after cisplatin treatment ([2]; SKOV3 parental cells, various small doses and times of cisplatin) | fold increase of IC50, IGROV1 CR vs parental IGROV1 (IGROV1 CR cells; 5 days) [fold] | pIC50 (IGROV1 CR cells; IGROV1 CR cells, 5 days) | pIC50 (SKOV3 cells; SKOV3 parental cells, 5 days) | apoptosis, SKOV3 versus SKOV3 CR cells (SKOV3 CR cells [3]; cisplatin for 48 h, Annexin V and Propidium Iodide staining)
1 | Cc1cc(Nc2cc(CN3CCOCC3)c3nc(C)c(Cc4ccc(Cl)cc4F)n3n2)n[nH]1 [LY2784544] | 0.34 | better cisplatin IC50 shift ability than MLN4924 or NSC319726 | significantly increased the sensitivity of SKOV3 CR cells to cisplatin; also recorded: re-sensitized SKOV3 CR cells to cisplatin | 0.69 | significantly reduced the phosphorylation of JAK2 as well as the phosphorylation of STAT5 | 0.71 | 0.93 | did not affect the cell proliferation of SKOV3 | did not cause apoptosis | induced apoptotic cell death | significant increase of apoptotic cells | – | – | – | – | – | – | – | – | –
2 | N.N.[Cl][Pt][Cl] [cisplatin] | – | – | – | – | – | – | – | – | – | – | – | 6.29 | 6.2 | 5.70 | 4.98 | JAK2/STAT5 signaling was activated | 2.9 | 5.82 | 5.70 | induced more apoptosis in SKOV3 cells than in SKOV3 CR cells
